In data set [1] the test system is Macrophages isolated from the bone marrow of mice. Description: Zymosan-stimulated release of hydrogen peroxide. The data set is classed as cell-based. Conditions: Mus musculus, Macrophage, 2 hours at 37° C, read-out: IC₅₀, zymosan-stimulated release of hydrogen peroxide. On the procedure: The production of hydrogen peroxide is used as a measure for the respiratory burst of phagocytic cells. Macrophages 10 to 14 days old, isolated from the bone marrow of mice are incubated for 10 to 30 minutes in the presence of the test compound. Zymosan (0.5 ml) is then added as phagocytic stimulant and the mixture is incubated for a further 2 hours at 37° C in the presence of homovallinic acid (0.5 ml, 400 µM) and horse radish peroxidase (4 U/ml). The reaction is stopped by the addition of 0.25 ml 0.1 M glycine-NaOH buffer, pH 12, containing 25 mM EDTA, the samples centrifuged at 2200 g for 10 minutes, and the homovallinic acid oxidation product, as a measure of the amount of H₂O₂ produced, measured fluorimetrically.

A further data set addresses T1, 5-lipoxygenase (Homo sapiens, UniProt P09917).
T1 construct: endogenous in cells
T1 sequence (P09917 1-674): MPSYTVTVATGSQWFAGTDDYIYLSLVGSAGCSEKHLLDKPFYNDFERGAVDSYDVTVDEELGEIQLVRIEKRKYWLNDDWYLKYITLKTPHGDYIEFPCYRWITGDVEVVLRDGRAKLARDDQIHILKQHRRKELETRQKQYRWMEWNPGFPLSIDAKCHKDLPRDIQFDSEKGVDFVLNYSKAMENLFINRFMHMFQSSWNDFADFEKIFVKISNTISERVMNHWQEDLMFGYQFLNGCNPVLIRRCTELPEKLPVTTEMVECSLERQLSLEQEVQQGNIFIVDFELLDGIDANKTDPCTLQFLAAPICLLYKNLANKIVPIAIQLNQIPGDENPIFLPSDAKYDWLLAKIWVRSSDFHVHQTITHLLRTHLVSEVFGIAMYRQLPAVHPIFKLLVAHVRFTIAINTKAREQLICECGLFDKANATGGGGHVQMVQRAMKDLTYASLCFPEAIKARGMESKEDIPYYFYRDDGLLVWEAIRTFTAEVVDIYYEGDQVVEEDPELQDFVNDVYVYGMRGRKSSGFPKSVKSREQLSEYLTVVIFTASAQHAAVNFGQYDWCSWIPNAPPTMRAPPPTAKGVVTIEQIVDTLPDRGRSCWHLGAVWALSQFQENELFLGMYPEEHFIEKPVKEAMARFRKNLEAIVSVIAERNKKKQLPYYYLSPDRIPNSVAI
Description: 5-lipoxygenase inhibition (neutrophil functions). The data set is classed as cell-based. The note with it: read-out: IC₅₀ for 5-lipoxygenase.

Another data set deals with 12 + 15-lipoxygenase. Description: 12 + 15-lipoxygenase inhibition (neutrophil functions). The note with it: read-out: IC₅₀ for 12 + 15-lipoxygenase. Type of data set: cell-based.
The subject of a further data set is mast cells. Nature of the data set: Polymyxin-stimulated release from mast cells. Type of data set: cell-based. The note with it: Mast cell.
Data set [2] has as its system Cyclooxygenase (prostaglandin synthetase). Description: Cyclooxygenase inhibition. Type of data set: biochemical. The note with it: at 100 µM.
The test system of a further data set is mice. Description: Croton oil-induced pinnal swelling in mice (irritant contact dermatitis, 2.1.2.). The note with it: simultaneous, topical, pinnal weight after 6 hours. Type of data set: in vivo. The method, then: Skin irritation with arachidonic acid or cantharidin is often used to experimentally induce inflammation in order to evaluate the anti-inflammatory activity of a compound [see e.g. Inflammation 8 (1984) 134-135; 10 (1986) 205-214]. NMRI mice (8 animals per group) receive 10 µl of a 10 % solution of arachidonic acid [J.M. Young et al., J. Invest. Derm. 82 (1986) 367-371] in acetone or, respectively, 0.08 % cantharidin [K.E. Swingle et al., Arch. Int. Pharmacodyn. Ther. 254 (1981) 168-176] in acetone applied to the medial and lateral surface of the right external ear. Treatment is performed either prophylactically 30 minutes before irritation (arachidonic acid) or, respectively, either simultaneously with the application of irritant solution or therapeutically 20 minutes after irritation (cantharidin), by a single epicutaneous application of the test compound dissolved in a mixture of N,N-dimethylacetamide, acetone and alcohol (2:2:4). The evaluation of the test group is effected by comparison with a control group of animals having received on the right ear lobe only the carrier substance or the irritant solution. The animals are killed 1.5 hours (arachidonic acid) or, respectively, 17 hours (cantharidin) after application of the irritant and efficacy in assessed by determination of the differences in auricular weight. Differences in weights (D) of right (involved) and left (uninvolved) pinnae of animals treated with test compound and arachidonic acid or cantharidin (T-group) are compared with differences in mice treated with arachidonic acid only or cantharidin only (C-group). Efficacy (%) is calculated according to the equation: [formula]
This model is similar to the above (see 2.1.1.). Skin inflammation is induced with 15 µl of 0.23 % croton oil in a mixture of dimethylacetamide, acetone and ethanol (2:4:4), or with 10 µl of 0.005 % TPA [12-O-tetradecanoylphorbol-13-acetate; Sigma] prepared in acetone with 0.5 % dimethylsulfoxide. Topical treatment is performed either simultaneously with the irritation (croton oil) or 20 minutes after the application (TPA). The test compound is prepared in DAE. Efficacy is assessed 6 hours after onset of irritation by determination of the auricular weight as described above.

Another data set is described as follows: Solubility in water. The data set is classed as physicochemical. Conditions: at 25°C.

The structures appear in SMILES notation. Where two headings read alike, the source gives them in different places. Marks after values point to notes of the source that are not given here. Some results are limits rather than exact numbers.

The text below walks through data of patent EP0385952A2, “Use of a naphthalenmethanamino derivative as antiinflammatory agent and pharmaceutical compositions containing it” (SANDOZ AG, priority 1989, dated 1990).

For the compound `CN(C/C=C/c1ccc(O)cc1)Cc1cccc2ccccc12` [compound of the invention, (E)-N-methyl-N-[3-(4-hydroxyphenyl)-2-propenyl]-1-naphthalene-methanamine], the IC50 in data set [1] is 2.1 µM; at 5-lipoxygenase, 44 µM; in the data set with 12 + 15-lipoxygenase it was 100 µM; with mast cells (read-out: IC₅₀ for polymyxin-stimulated release of histamine), above 100 µM; with mast cells (read-out: IC₅₀ for polymyxin-stimulated release of β-glucosaminidase) it was above 100 µM. The “Cyclooxygenase (prostaglandin synthetase) inhibition” value in data set [2] was “not inhibited”. The “Efficacy (%)” value with mice (test concentration 1.2 %) is listed as 67** %; in the data set with mice (test concentration 3.6 %), 81** %. Moreover, in “Solubility in water”, the solubility was below 100 µg/mL.
